# Reference: ChEMBL document CHEMBL5376007, “Discovery of Novel PD-L1 Inhibitors That Induce the Dimerization, Internalization, and Degradation of PD-L1 Based on the Fragment Coupling Strategy” (J Med Chem, 2023)
# Calls of active or inactive are those of the source. The calls are words filed in the database; no cut-off is given here.
# What was measured:
# [1] = target: Programmed cell death protein 1/Programmed cell death 1 ligand 1 (Homo sapiens, UniProt Q9NZQ7); assay: Inhibition of interaction of Fc(IgG1)-Avi)-(Biotin)-fused human PDL1 (19 to 239 residues)/Eu-labeled human PD-1 (25 to 167 residues) expressed in HEK293 cells pretreated with PDL1 for 15 mins followed by PD-1 addition and measured after 90 mins by TR-FRET assay; assay type: cell-based
# Sequence of Programmed cell death protein 1/Programmed cell death 1 ligand 1 (Q15116 whole entry, the tested form may be a part): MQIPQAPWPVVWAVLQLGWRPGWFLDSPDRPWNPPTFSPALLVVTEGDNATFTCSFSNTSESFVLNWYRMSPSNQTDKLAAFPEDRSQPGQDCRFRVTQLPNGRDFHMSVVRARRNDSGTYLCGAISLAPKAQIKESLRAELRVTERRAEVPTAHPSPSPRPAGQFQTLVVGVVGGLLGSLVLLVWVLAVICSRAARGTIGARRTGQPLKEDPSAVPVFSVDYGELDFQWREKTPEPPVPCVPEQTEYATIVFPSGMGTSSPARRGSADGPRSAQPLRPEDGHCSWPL
# Sequence of Programmed cell death protein 1/Programmed cell death 1 ligand 1 (Q9NZQ7 whole entry, the tested form may be a part): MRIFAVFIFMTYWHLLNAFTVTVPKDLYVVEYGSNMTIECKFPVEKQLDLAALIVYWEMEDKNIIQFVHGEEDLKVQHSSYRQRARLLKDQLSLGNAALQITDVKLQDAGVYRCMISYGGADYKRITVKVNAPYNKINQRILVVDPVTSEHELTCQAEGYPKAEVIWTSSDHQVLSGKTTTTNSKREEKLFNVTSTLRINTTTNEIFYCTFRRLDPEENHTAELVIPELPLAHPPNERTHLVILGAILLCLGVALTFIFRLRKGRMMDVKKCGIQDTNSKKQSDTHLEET
# [2] = target: Programmed cell death 1 ligand 1 (Homo sapiens, UniProt Q9NZQ7); assay: Inhibition of human recombinant PDL1 expressed in HEK293 cells assessed as restoration of Jurkat T cell activity by measuring increase in IFNgamma secretion at 1 uM incubated for 24 hrs by ELISA; assay type: cell-based; set-up: Activity: scale not given: the % may be the effect or the level left
# Sequence of Programmed cell death 1 ligand 1 (Q9NZQ7 whole entry): as the sequence (Q9NZQ7 whole entry, the tested form may be a part) above
Compound,IC50 [1],inhibition [2],Activity [2]
Cc1c(-c2ccccc2)cccc1-c1nnc(Nc2cccc(CNCCO)c2)o1,27.8 nM,–,–
Cc1c(C(=O)Nc2ccc(CNCCO)cn2)cccc1-c1cccc(-c2nnc(Nc3cccc(CNCCO)c3)o2)c1C,14.5 nM,–,–
COc1nc(O[C@H]2CCc3c(-c4cccc(C(=O)Nc5ccc(CNCCNC(C)=O)cn5)c4Cl)cccc32)c(Cl)cc1CNCCNC(C)=O,4.1 nM,Active,–
Cc1c(-c2nnc(Nc3ccc(CNCCO)cc3)o2)cccc1-c1cccc(-c2nnc(Nc3cccc(CNCCO)c3)o2)c1C,714 nM,–,–
Cc1c(-c2cccc(-c3nnc(Nc4cccc(CNCCO)c4)o3)c2)cccc1-c1nnc(Nc2cccc(CN3CC[C@@H](O)C3)c2)o1,51.6 nM,–,–
CC(=O)NCCNCc1cccc(Nc2nnc(-c3cccc(-c4cccc(-c5nnc(Nc6cccc(CNCCO)c6)o5)c4C)c3C)o2)c1,38 nM,–,–
COc1nc(-c2cccc(-c3cccc(-c4nnc(Nc5cccc(CNCCO)c5)o4)c3C)c2C)ccc1CNCCNC(C)=O,23.5 nM,–,66%
COc1nc(O[C@H]2CCc3c(-c4cccc(C(=O)Nc5ccc(CNCCO)c(C(F)(F)F)n5)c4Cl)cccc32)c(Cl)cc1CNCCO,16.7 nM,–,–
COc1nc(O[C@H]2CCc3c(-c4cccc(C(=O)Nc5ccc(CNCCO)c(F)n5)c4Cl)cccc32)c(Cl)cc1CNCCO,16.1 nM,–,–
COc1nc(O[C@H]2CCc3c(-c4cccc(C(=O)Nc5ccc(CN6CC(O)C6)cn5)c4Cl)cccc32)c(Cl)cc1CN1CC(O)C1,6.3 nM,–,–
Cc1c(-c2nnc(Nc3cccc(CNCC(=O)O)c3)o2)cccc1-c1cccc(-c2nnc(Nc3cccc(CNCC(=O)O)c3)o2)c1C,68.8 nM,–,–
Cc1c(-c2nnc(Nc3cccc(CNCCO)c3)o2)cccc1-c1cccc(-c2nnc(Nc3cccc(CNCCO)c3)o2)c1C,78.4 nM,–,–
COc1nc(NC(=O)c2cccc(-c3cccc4c3CC[C@@H]4Oc3nc(OC)c(CNCCNC(C)=O)cc3Cl)c2Cl)ccc1CNCCNC(C)=O,22.1 nM,–,–
COc1nc(-c2cccc(-c3cccc(-c4nnc(Nc5cccc(CNCCO)c5)o4)c3C)c2C)ccc1CNCCO,13.9 nM,Active,–
Cc1c(-c2cccc(-c3ccc(CNCCO)cc3)c2)cccc1-c1nnc(Nc2cccc(CNCCO)c2)o1,42 nM,–,–
CC(=O)NCCNCc1cccc(Nc2nnc(-c3cccc(-c4cccc(-c5nnc(Nc6cccc(CNCCNC(C)=O)c6)o5)c4C)c3C)o2)c1,58.8 nM,–,–
